How the values were obtained:
[1] = Suspending PPI capsule granules or tablets in calcium carbonate suspension; assay type: physicochemical; conditions: granular contents of capsule (20 mg omeprazole, 30 mg lansoprazole) in 10 cc of 4 gm % or 8 gm % calcium carbonate suspension
Protocol: More specifically, suspensions of calcium carbonate were produced by dissolving either 400 mg or 800 mg of calcium carbonate in 10 cc of water, resulting in suspensions of 4 gm % and 8 gm %, respectively. In separate 10 cc preparations of either strength of the calcium carbonate suspension, the granular contents of a 20 mg omeprazole capsule, a 30 mg lansoprazole capsule, a 20 mg rabeprazole tablet, and a 40 mg pantoprazole tablet were suspended. In approximately 30 minutes, the granules of the omeprazole and lansoprazole capsules were in complete suspension. In approximately two hours, the contents of the tablets of rabeprazole and pantoprazole had completely suspended.

gastric acid secretion = conditions: intact granules suspended in orange juice, via gastrostomy tube; cited from earlier work

## Cc1c(OCC(F)(F)F)ccnc1C[S+]([O-])c1nc2ccccc2[nH]1 (centres unmarked) [lansoprazole]
[1]
  time until granules were in complete suspension: approximately 30 minutes
Gastric acid secretion
  suppression of gastric acid secretion: produced the desired effect of suppressing gastric acid secretion

From patent publication US20040146554A1, “Method for the administration of acid-labile drugs” (priority 2000, published 2004)
